From BindingDB's records for doi:10.1111/j.1747-0285.2009.00884.x (Pfizer, 2009)
“And” between values parts separate entries of the source, which are not always exact repeats. Equal values may be shown once.

Tests used:
[1] = molecular target: T1, Mitogen-activated protein kinase 14 (Homo sapiens, UniProt Q16539); test: Active p38alpha cascade assay; conditions: pH 7.5; 25 °C
Description: The reaction was run for 15 min atroom temperature. […] Under such

[2] = molecular target: T1, Mitogen-activated protein kinase 14; test: Unactivated p38alpha cascade assay; conditions: pH 7.5; 25 °C
Description: Binding of inhibitors to unactivated p38a that leads to decreasedphosphorylation of p38alpha by MKK6 was determined by measuringthe activated p38alpha activity in the assay mixture with andwithout inhibitors. In a 20-lL reaction mixture containing 50 mMHepes, pH 7.5, 1 mM EGTA, 10 mM MgCl2, 0.01% (w / v) Brij35 and 200 µM DTT, unactivated p38a (2 nM) was preincubatedwith inhibitors at various concentrations for 30 min at roomtemperature. Ten microliters of 1 mM ATP and 1 nM active MKK6were then introduced to initiate p38a activation. The reaction wasrun at room temperature for 15 min. The mixture was thenimmediately diluted 100-fold so that the inhibitor concentrationwas reduced by 2 orders of magnitude and residual inhibitoryeffect was minimized. The reaction product, active p38alpha, wasthen calculated based on its catalytic activity to activate MK2 asdescribed in Active p38a cascade assay section.

T1 sequence (Q16539 whole entry): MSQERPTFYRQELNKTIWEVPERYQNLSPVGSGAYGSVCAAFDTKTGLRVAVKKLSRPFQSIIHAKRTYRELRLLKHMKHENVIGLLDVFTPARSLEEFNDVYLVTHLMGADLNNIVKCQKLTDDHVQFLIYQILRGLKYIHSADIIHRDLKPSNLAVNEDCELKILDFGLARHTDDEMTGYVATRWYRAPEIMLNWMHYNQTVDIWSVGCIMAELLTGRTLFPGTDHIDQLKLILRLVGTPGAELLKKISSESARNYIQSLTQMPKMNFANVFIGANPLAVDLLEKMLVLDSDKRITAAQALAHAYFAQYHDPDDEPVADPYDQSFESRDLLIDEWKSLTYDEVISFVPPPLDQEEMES

IC50 [1] | IC50 [2] | SMILES
1080 nM | 11 nM | Cc1ccc(C(=O)NC(=O)NCc2ccc(-n3nc(C(C)(C)C)cc3NC(=O)Nc3ccccc3)cc2)cc1C(=O)O [(11a) BIRB796]
1130 nM | 36 nM | Cc1ccc(C(=O)NC(O)(NCc2ccc(-n3nc(C(C)(C)C)cc3NC(=O)Nc3cccc4ccccc34)cc2)C2CCCC2)cc1C(=O)O (stereo not given) [(7b) BIRB796]
1.8 nM | 110 nM | Clc1ccc(-c2c[nH]c(-c3cc4ccccc4cn3)n2)cc1 [PF-00215924]
1220 nM | 35 nM | Cc1ccc(C(=O)[n+]2cccc(C(=O)NCc3ccc(-n4nc(C(C)(C)C)cc4NC(=O)Nc4ccccc4)cc3)c2)cc1C(=O)O [(11b) BIRB796]
393 nM and 664 nM | 11 nM and 25 nM | Cc1cc(C(=O)NCc2ccc(-n3nc(C(C)(C)C)cc3NC(=O)Nc3cccc4ccccc34)cc2)ccc1C(=O)O [(8a) BIRB796]
1590 nM | 53 nM | Cc1cc(C(=O)NC(=O)NCc2ccc(-n3nc(C(C)(C)C)cc3NC(=O)Nc3ccccc3)cc2)ccc1C(=O)O [(12a) BIRB796]
1470 nM | 62 nM | Cc1cc(C(=O)[n+]2cccc(C(=O)NCc3ccc(-n4nc(C(C)(C)C)cc4NC(=O)Nc4ccccc4)cc3)c2)ccc1C(=O)O [(12b) BIRB796]
261 nM | 7 nM | Cc1cc(C(=O)NC(C)(O)NCc2ccc(-n3nc(C(C)(C)C)cc3NC(=O)Nc3ccccc3)cc2)ccc1C(=O)O (stereo not given) [(10a) BIRB796]
1110 nM | 26 nM | CC(=O)c1cc(C(=O)NC(O)(NCc2ccc(-n3nc(C(C)(C)C)cc3NC(=O)Nc3cccc4ccccc34)cc2)C2CCCC2)ccc1C (stereo not given) [(5b) BIRB796]
2950 nM | 320 nM | Brc1ccc(-c2c[nH]c(-c3cc4ccccc4cn3)n2)cc1 [PF-04764755]
933 nM | 8 nM | CC(=O)c1cc(C(=O)NCc2ccc(-n3nc(C(C)(C)C)cc3NC(=O)Nc3cccc4ccccc34)cc2)ccc1C [(5a) BIRB796]
2100 nM | 1030 nM | O=S1(=O)N=c2ccc3c4c(c5ccccc5c(c24)O1)OS(=O)(=O)N=3 [CP-232880]
376 nM | 6 nM | Cc1ccc(C(=O)NC(C)(O)NCc2ccc(-n3nc(C(C)(C)C)cc3NC(=O)Nc3ccccc3)cc2)cc1C(=O)O (stereo not given) [(9a) BIRB796]
691 nM | 11 nM | Cc1ccc(C(=O)NCc2ccc(-n3nc(C(C)(C)C)cc3NC(=O)Nc3cccc4ccccc34)cc2)cc1C(=O)O [(7a) BIRB796]
1900 nM and > 12500 nM | – | Brc1ccc(-c2c[nH]c(-c3cc4ccccc4cn3)n2)cc1 [PF-00215937]
> 12500 nM | 2300 nM | Clc1cccc(-c2c[nH]c(-c3cc4ccccc4cn3)n2)c1 [PF-00240292]
810 nM | 22 nM | Cc1ccc(C(=O)NC(O)(NC(=O)NCc2ccc(-n3nc(C(C)(C)C)cc3NC(=O)Nc3ccccc3)cc2)C2CCCC2)cc1C(=O)O (stereo not given) [(9b) BIRB796]
> 12500 nM | 6000 nM | NCCC(=O)c1cccc(Oc2cccc(C(=O)CCN)c2)c1 [UK-146015]
